The source of these data is ChEMBL document CHEMBL2203061, “O-Aryl α,β-d-ribofuranosides: synthesis & highly efficient biocatalytic separation of anomers and evaluation of their Src kinase inhibitory activity” (Bioorg Med Chem, 2012).

Structures are written as SMILES. Active and inactive are the calls of the source. No cut-off for these calls is given here.

T1 sequence (P12931 2-536 limits assumed): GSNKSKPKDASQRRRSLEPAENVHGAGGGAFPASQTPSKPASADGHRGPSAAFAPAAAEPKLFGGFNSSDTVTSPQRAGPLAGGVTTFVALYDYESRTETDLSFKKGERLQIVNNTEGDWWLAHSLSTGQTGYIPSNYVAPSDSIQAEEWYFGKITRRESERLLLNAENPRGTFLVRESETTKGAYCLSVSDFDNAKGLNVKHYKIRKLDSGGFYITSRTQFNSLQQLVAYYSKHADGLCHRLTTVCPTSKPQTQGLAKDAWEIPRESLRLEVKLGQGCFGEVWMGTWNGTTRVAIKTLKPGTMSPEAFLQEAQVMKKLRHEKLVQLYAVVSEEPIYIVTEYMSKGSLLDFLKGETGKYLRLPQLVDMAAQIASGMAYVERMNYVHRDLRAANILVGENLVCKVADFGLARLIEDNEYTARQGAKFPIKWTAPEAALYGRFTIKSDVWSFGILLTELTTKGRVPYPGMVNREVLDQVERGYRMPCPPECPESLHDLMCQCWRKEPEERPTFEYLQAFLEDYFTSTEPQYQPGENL

The first assay has as its target T1, Proto-oncogene tyrosine-protein kinase Src (Homo sapiens, UniProt P12931). In words: Inhibition of GST-tagged c-Src up to 100 uM preincubated for 5 mins measured after 30 mins.
As to `COc1cccc(O[C@H]2O[C@H](CO)[C@@H](O)[C@H]2O)c1`, the inhibition entry was “inactive”. The same measure, in the same setting: with `OC[C@H]1O[C@H](Oc2ccc(O)cc2)[C@H](O)[C@@H]1O` the entry was “inactive”; with `COc1ccc(O[C@H]2O[C@H](CO)[C@@H](O)[C@H]2O)cc1`, “inactive”. Same read-out and setting: the entry for `OC[C@H]1O[C@H](Oc2ccc(-c3ccccc3)cc2)[C@H](O)[C@@H]1O` is “inactive”.

A further assay concerns the target T1, Proto-oncogene tyrosine-protein kinase Src. In words: Inhibition of GST-tagged c-Src preincubated for 5 mins measured after 30 mins.
Broadly, the IC50 is the concentration at which inhibition is half-maximal. Low readings indicate inhibition by little substance, high ones a need for much substance. The compound `Cc1ccc(O[C@@H]2O[C@H](CO)[C@@H](O)[C@H]2O)cc1` returned an IC50 of 143 µM. On the same count and under the same terms, with `Cc1cccc(O[C@H]2O[C@H](CO)[C@@H](O)[C@H]2O)c1` the figure was 451 µM.

Regarding `OC[C@H]1O[C@@H](Oc2ccc(-c3ccccc3)cc2)[C@H](O)[C@@H]1O`, 125 µM corresponded to half-maximal inhibition (IC50). In the case of `OC[C@H]1O[C@H](Oc2ccc3ccccc3c2)[C@H](O)[C@@H]1O`, the IC50 came to 297 µM. Turning to `COc1cccc(O[C@@H]2O[C@H](CO)[C@@H](O)[C@H]2O)c1`, the IC50 stood at 95 µM. The same measure, in the same setting: the figure for `COc1ccc(O[C@@H]2O[C@H](CO)[C@@H](O)[C@H]2O)cc1` is 484 µM; for `OC[C@H]1O[C@H](Oc2cccc3ccccc23)[C@H](O)[C@@H]1O` it is 185 µM; for `OC[C@H]1O[C@@H](Oc2cccc3ccccc23)[C@H](O)[C@@H]1O` it is 1370 µM. The same measure, in the same setting: with `OC[C@H]1O[C@@H](Oc2ccc(O)cc2)[C@H](O)[C@@H]1O` the figure was 272 µM; with `OC[C@H]1O[C@@H](Oc2ccc3ccccc3c2)[C@H](O)[C@@H]1O`, 225 µM.
